13 compounds from US11174242B2, “Heteroaryl compounds and their use” (Minoryx Therapeutics S.L., priority 2016, dated 2021) can be followed below.

The structures appear in SMILES notation. Positions count from the first letter of the chain named.

In experiment [1] the target is T1, β-glucocerebrosidase, p.L444P mutation (GM08760A fibroblasts) (Homo sapiens, UniProt P04062, L483P).
T1 construct: host or cells: human Gaucher patient fibroblasts GM08760A, homozygous L444P
T1 sequence (P04062 40-536 L483P): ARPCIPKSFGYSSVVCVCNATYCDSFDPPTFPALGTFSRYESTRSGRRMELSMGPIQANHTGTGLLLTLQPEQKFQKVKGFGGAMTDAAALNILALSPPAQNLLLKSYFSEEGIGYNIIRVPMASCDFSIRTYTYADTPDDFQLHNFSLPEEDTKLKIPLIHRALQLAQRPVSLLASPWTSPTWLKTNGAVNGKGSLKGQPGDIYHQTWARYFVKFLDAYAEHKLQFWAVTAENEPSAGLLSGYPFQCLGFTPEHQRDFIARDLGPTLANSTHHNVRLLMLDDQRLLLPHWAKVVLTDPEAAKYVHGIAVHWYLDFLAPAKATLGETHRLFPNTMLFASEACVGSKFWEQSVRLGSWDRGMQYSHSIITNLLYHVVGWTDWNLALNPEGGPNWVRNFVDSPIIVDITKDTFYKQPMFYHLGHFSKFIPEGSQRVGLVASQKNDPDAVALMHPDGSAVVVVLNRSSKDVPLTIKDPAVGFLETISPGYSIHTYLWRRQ
Nature of the experiment: Enhancement of β-glucocerebrosidase activity measured in Gaucher disease fibroblasts (L444P). Format: cell-based. The note with it: increase in enzyme activity vs non-treated cells, GBA fibroblasts bearing L444P. In outline: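 GM08760A fibroblasts (homozygous p.L444P), 5×10^3 cells/well, treated with compound for 4 days at 37° C. Intact cells then incubated with 4-MU-β-D-glucopyranoside in 0.1 M acetate buffer pH=4 for 1 hour at 37° C.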

Experiment [2] concerns the target T2, β-glucocerebrosidase Wild Type (WT) (Homo sapiens, UniProt P04062).
T2 construct: endogenous in cells
T2 sequence (P04062 40-536): T1 sequence (P04062 40-536 L483P) with P444L
The experiment is described as follows: β-glucocerebrosidase activity enhancement, Wild Type (WT). Type of experiment: cell-based. The note with it: increase in enzyme activity vs non-treated cells; for Activity WT: commercially available compounds. As for the experimental part:
Fibroblasts were seeded at 5×10^3 cells per well in 96-well cell culture plates (Corning, N.Y., USA) in Dulbecco's Modified Eagle's Media (DMEM) supplemented with 10% of fetal bovine serum (FBS), 1% penicillin/streptomycin (P/S) (Thermo Fisher Scientific, Waltham, Mass., USA) and grown at 37° C., 5% CO2 overnight for cell attachment. Subsequently, cells were incubated in the absence or presence of the compounds at the desired concentration for 4 days. After incubation, cells were washed twice with phosphate-buffered saline (PBS) and enzyme activity assay was performed.
β-glucocerebrosidase activity in intact cultured cells was measured by using 4-methylumbelliferyl-β-D-glucopyranoside substrate (Apollo Scientific, UK). Briefly, cells were incubated with 4-MU-β-D-glucopyranoside in 0.1 M acetate buffer pH=4 at 37° C. for 1 hour. […] The liberated 4-MU was measured on a GloMax Discover plate reader (Promega, Madison, Wis., USA) with and excitation at 340 nm and emission at 460 nm. Enzyme activities were expressed in treated cells as X-fold increase in comparison with non-treated cells (X=1 represents no enhancement).
The following compounds listed in Table 2 were purchased (from Enamine, Princeton, Asinex, Vistas-M, and OSSK_541352) and tested in the assay as described above.

Where [3] appears, read: concentrations between 6 and 50 μM, 4 days incubation.
[4] abbreviates: commercially available compounds, 6-50 μM, 4 days.

For `COc1ccc(C)cc1Nc1cc(CN(C)Cc2ccccc2)nc(N)n1` [Example 46, 6-((Benzyl(methyl)amino)methyl)-N^4-(2-methoxy-5-methylphenyl)pyrimidine-2,4-diamine], the “Activity L444P” value in experiment [1] (setting [3]) is given as “B (Increase in comparison with non-treated of >1.7-2.0 fold is shown as B)”. Moreover, in experiment [2], the “Activity Wild Type (WT)” value is on record as “B (Increase in comparison with non-treated of >1.7-2.0 fold is shown as B)”.

As to `COc1ccc(CN(C)Cc2cc(Nc3cccc(C)c3)nc(N)n2)cc1` [Example 47, 6-(((4-Methoxybenzyl)(methyl)amino)methyl)-N^4-m-tolylpyrimidine-2,4-diamine], in experiment [1] (setting [3]), the “Activity L444P” value is on record as “C (Increase in comparison with non-treated of 1.2-1.7 fold is shown as C)”. In addition, in experiment [2], the “Activity Wild Type (WT)” value is reported as “C (Increase in comparison with non-treated of 1.2-1.7 fold is shown as C)”.

As to `CCN(Cc1ccccc1)Cc1cc(Nc2cccc(OC)c2)nc(N)n1` [Example 48, 6-((Benzyl(ethyl)amino)methyl)-N^4-(3-methoxyphenyl)pyrimidine-2,4-diamine], the “Activity L444P” value in experiment [1] (setting [3]) was “C (Increase in comparison with non-treated of 1.2-1.7 fold is shown as C)”. For the same compound, the “Activity Wild Type (WT)” value in experiment [2] is recorded as “B (Increase in comparison with non-treated of >1.7-2.0 fold is shown as B)”.

Consider `COc1cccc(Nc2cc(CN3CCCC3c3ccccc3)nc(N)n2)c1` (centres unmarked) [Example 50], for which, in experiment [1] (setting [3]), the “Activity L444P” value is listed as “C (Increase in comparison with non-treated of 1.2-1.7 fold is shown as C)”. Besides, the “Activity Wild Type (WT)” value in experiment [2] was “C (Increase in comparison with non-treated of 1.2-1.7 fold is shown as C)”.

Take `Cc1ccc(Nc2cc(CN(C)Cc3ccccc3)nc(N)n2)cc1` [Example 52, 6-((Benzyl(methyl)amino)methyl)-N^4-p-tolylpyrimidine-2,4-diamine]: in experiment [1] (setting [3]), the “Activity L444P” value is reported as “C (Increase in comparison with non-treated of 1.2-1.7 fold is shown as C)”. In experiment [2], the “Activity Wild Type (WT)” value is “C (Increase in comparison with non-treated of 1.2-1.7 fold is shown as C)”.

`Cc1cccc(Nc2cc(N)nc(CN(C)Cc3ccccc3)n2)c1` [Example 64, 2-((Benzyl(methyl)amino)methyl)-N^4-m-tolylpyrimidine-4,6-diamine]: in experiment [1] (setting [3]), the “Activity L444P” value was “B (Increase in comparison with non-treated of >1.7-2.0 fold is shown as B)”. Also, in experiment [2], the “Activity Wild Type (WT)” value was “B (Increase in comparison with non-treated of >1.7-2.0 fold is shown as B)”.

As for `COc1cccc(Nc2cc(N)nc(CN(C)Cc3ccccc3)n2)c1` [Example 65, 2-((Benzyl(methyl)amino)methyl)-N^4-(3-methoxyphenyl)pyrimidine-4,6-diamine], the “Activity L444P” value in experiment [1] (setting [3]) is “B (Increase in comparison with non-treated of >1.7-2.0 fold is shown as B)”. Besides, in experiment [2], the “Activity Wild Type (WT)” value is on record as “A (Increase in comparison with non-treated of >2.0 fold is shown as A)”.

For `COc1ccccc1Nc1nc(N)cc(CN(C)Cc2ccccc2)n1` [Example 67, 6-((Benzyl(methyl)amino)methyl)-N^2-(2-methoxyphenyl) pyrimidine-2,4-diamine], the “Activity L444P” value in experiment [1] (setting [3]) is listed as “A (Increase in comparison with non-treated of >2.0 fold is shown as A)”. Further, the “Activity Wild Type (WT)” value in experiment [2] is given as “B (Increase in comparison with non-treated of >1.7-2.0 fold is shown as B)”.

Turning to `Cc1cccc(Nc2nc(N)cc(CN(C)Cc3ccccc3)n2)c1` [Example 68, 6-((Benzyl(methyl)amino)methyl)-N^2-m-tolylpyrimidine-2,4-diamine], in experiment [1] (setting [3]), the “Activity L444P” value was “B (Increase in comparison with non-treated of >1.7-2.0 fold is shown as B)”. Further, the “Activity Wild Type (WT)” value in experiment [2] is on record as “A (Increase in comparison with non-treated of >2.0 fold is shown as A)”.

Consider `COc1cccc(Nc2nc(N)cc(CN(C)Cc3ccccc3)n2)c1` [Example 69, 6-((Benzyl(methyl)amino)methyl)-N^2-(3-methoxyphenyl)pyrimidine-2,4-diamine], for which the “Activity L444P” value in experiment [1] (setting [3]) is on record as “A (Increase in comparison with non-treated of >2.0 fold is shown as A)”. For the same compound, the “Activity Wild Type (WT)” value in experiment [2] is given as “C (Increase in comparison with non-treated of 1.2-1.7 fold is shown as C)”.

For the compound `COc1ccc(Nc2nc(N)cc(CN(C)Cc3ccccc3)n2)cc1` [Example 70], the “Activity L444P” value in experiment [1] (setting [3]) was “A (Increase in comparison with non-treated of >2.0 fold is shown as A)”. Also, the “Activity Wild Type (WT)” value in experiment [2] was “B (Increase in comparison with non-treated of >1.7-2.0 fold is shown as B)”.

As for `Nc1nc(CN2Cc3ccccc3C2)nc(Nc2ccc(F)cc2)n1` [N2-(4-fluorophenyl)-6-(isoindolin-2-ylmethyl)-1,3,5-triazine-2,4-diamine], in experiment [1] (setting [4]), the “Activity L444P” value is given as “B (Increase in comparison with non-treated of >1.7-2.0 fold is shown as B)”. Moreover, the “Activity WT” value in experiment [2] is “C (Increase in comparison with non-treated of 1.2-1.7 fold is shown as C)”.

On to `COc1cccc(N2CCN(Cc3nc(N)nc(NCc4ccccc4)n3)CC2)c1` [N2-benzyl-6-((4-(3-methoxyphenyl)piperazin-1-yl)methyl)-1,3,5-triazine-2,4-diamine], for which the “Activity L444P” value in experiment [1] (setting [4]) is listed as “C (Increase in comparison with non-treated of 1.2-1.7 fold is shown as C)”. Also, the “Activity WT” value in experiment [2] is listed as “C (Increase in comparison with non-treated of 1.2-1.7 fold is shown as C)”.
